In patent US20120322060A1, “DIAGNOSIS AND MONITORING TREATMENT OF PSYCHIATRIC DISEASES WITH SPADIN AND RELATED METHODS” (CENTRE NATIONAL DE LE RECHERCHE SCIENTIFIQUE - CNRS -, priority 2011, published 2012):
No end group written: not given here.

Legend:
mice [1] = assay: Tail Suspension Test (TST); type: in vivo, mouse
Description: Mice were suspended by the tail. […] The immobility time was recorded during a 6 min test session.

mice [2] = assay: Conditioned Suppression of Motility test (CMST); type: in vivo, mouse
Description: Mice were placed in a rectangular cage (20×20×27 cm) with a metallic grid floor, located in a sound-proof room illuminated by a 75 W bulb. There were 12 squares drawn on the floor for counting animal displacements. On the first day, the mouse was left in the test cage for 6 min and received 30 electric footshocks of 1.8 mA during 200 ms (one shock every 12 s.). On the second day, the mouse was again placed in the same cage without receiving electric footshocks (conditioned suppression group). Motility changes were observed by counting the number of squares crossed plus the number of climbing in 6 min. Each control group was treated exactly by the same way, except for the absence of the electric foot-shock. In this test, the mice learned to associate a conditioned stimulus (CS: test chamber) with an unconditioned stimulus (US: footshocks). After the pairing of CS and US, a robust associative memory of the CS-US was formed such that the CS alone could elicit a fear response (behavioral immobility or freezing).

TREK-1 [3] = biological target: T1, TREK-1 (Mus musculus, UniProt P97438); assay: Whole-cell patch-clamp on CA3 pyramidal neurons in hippocampus brain slices; type: cell-based; parameters: a cellular network that endogenously expresses both TREK-1 and NTSR3/Sortilin; from tissue; host or cells: mouse hippocampal brain slices, CA3 pyramidal neurons; settings: CA3 neurons of kcnk2-/- mice
T1 sequence (P97438 1-426): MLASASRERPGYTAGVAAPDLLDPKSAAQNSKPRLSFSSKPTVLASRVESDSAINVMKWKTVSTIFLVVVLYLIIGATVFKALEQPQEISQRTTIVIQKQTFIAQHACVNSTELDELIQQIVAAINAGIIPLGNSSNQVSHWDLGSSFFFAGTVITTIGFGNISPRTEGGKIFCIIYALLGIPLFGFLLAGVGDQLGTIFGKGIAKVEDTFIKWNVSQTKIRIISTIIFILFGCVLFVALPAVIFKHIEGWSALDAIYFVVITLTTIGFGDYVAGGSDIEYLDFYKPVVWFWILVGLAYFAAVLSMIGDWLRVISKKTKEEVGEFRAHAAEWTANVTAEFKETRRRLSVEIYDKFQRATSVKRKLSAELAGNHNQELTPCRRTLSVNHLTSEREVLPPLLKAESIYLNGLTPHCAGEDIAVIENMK

mice [4] = assay: Learned Helplessness (LH) test; type: in vivo, mouse; settings: acute i.v., 10^-6 M, shocked mice
Description: LH training was carried out in 2-way shuttle plexiglas boxes (Imetronic). Each box was divided in 2 equal compartments (19.5×10×13 cm) separated by a wall equipped with, a gate (4.7×4.7 cm) that was closed during LH training but opened automatically during shuttle escape testing. LH was induced in shocked group by administering 360 inescapable, 2-s duration footshocks (0.3 mA intensity), administered once every 10 s over a 1-hour session. Scrambled shocks were delivered by a source shock to a grid floor, which was made of stainless steel bars 2 mm in diameter, spaced 4 mm apart. […] 24 hours later, escape testing was performed in the same box, but the animals had the possibility to avoid shocks by moving through the gate to the other side of the box. During testing sessions, all mice were given 30 shuttle escape trials with 30 s intervals between the start of each trial. While on the first five trials, the gate opened at the same time as the shock (0.3 mA), for the 25 remaining trials, the gate opened 2 s after shock onset. Each trial (with a maximal 24 s) duration was terminated when the mouse went into the adjacent compartment. Escape latencies were averaged over 5 trials. Overall escape latencies were computed by averaging escape latencies over 30 trials.

CREB = assay: pCREB immunostaining in hippocampal sections; type: in vivo, mouse; settings: 4 days, i.p. 10^-5 M, hippocampal SGZ
Description: Free floating sections were permeabilized in 0.1% Triton/PBS for 10 min and blocked with 3% goat serum/PBS for 2 hours at room temperature followed by a single wash in PBS. Sections were then incubated with the monoclonal anti-pCREB antibody (1:300, Cell Signaling Technology) overnight at 4° C. After three washes in PBS, sections were then incubated in biotinylated horse anti-rabbit IgG (Jackson ImmunoResearch, diluted 1:15000) for 2 hours at room temperature. pCREB expression was visualized by 3.3′-diaminobenzidine (DAB) staining using the VectaStain ABC kit (Biovalley). All sections were washed and mounted with Entellan. For BrdU/pCREB immunofluorescence staining, free floating sections of mice injected with BrdU were incubated with the primary antibodies, anti-rabbit pCREB (1:500, Cell Signaling Technology) and anti-mouse BrdU (1:40, Becton-Dickinson). After three washesin PBS, sections were then incubated in anti-IgGAlexa 488- or 594-coupled antibodies (Molecular Probes) for 1 h at room temperature. After drying sections in the dark boxes for 2 hours, they were mounted with Vectashield (Vector laboratories). Confocal microscopy observations were performed with the Laser Scanning Confocal Microscope (TCS SP, Leica) equipped with a DMIRBE inverted microscope, using a Plan Apo 63x/1,4 NA oil immersion objective.

TREK-1 [5] = biological target: T1, TREK-1; assay: Whole-cell patch-clamp of native currents on β-TC3 cell line; type: cell-based; parameters: expressed in transfected cells; host or cells: COS-7 (DEAE-dextran transfection); settings: 1 μM spadin; read-out: inhibition of endogenous TREK-1
Description: Native currents elicited by these cells were recorded in the whole-cell configuration of the patch-clamp technique (as described for COS-7 cells) and in the presence of K^+ blockers.

TREK-1 [6] = biological target: T1, TREK-1; assay: Association kinetics / internalization of 125I-spadin on COS-7 cells expressing TREK-1; type: cell-based; parameters: expressed in transfected cells; host or cells: COS-7 (DEAE-dextran transfection); settings: 37° C.
Description: Cells, grown on 12 mm multiwell-dishes, were incubated with 0.2 nM ^125I-spadin for various times at 37° C. in an Earle's Tris-Hepes buffer (cell binding buffer). Incubations were terminated by washing cells twice with the binding buffer or with the same buffer containing 0.5 M NaCl, pH 4, for 2 min to remove non sequestrated radioactivity (acid-NaCl wash). Cells were harvested with 1 ml of 0.1 N NaOH and counted in a gamma-counter. Non specific binding was determined in the presence of 10 μM unlabeled spadin.

APLPRWSGPIGVSWGLR [spadin]
immobility times versus saline (mice [1]; acute, i.v., 10^-6 M, 30 min before test): significantly reduced immobility times
effect in TST (mice [1]; injection in kcnk2-/- mice): did not induce any change
reduction of time spent immobile (mice [1]; subchronic, 4 days, spadin i.v. 10^-6 M, fluoxetine 3 mg/kg): 28.1%
reduction of conditioned suppression of motility (mice [2]; i.v., 10^-6 M): 84.4%
effect in CMST (mice [2]; injection in kcnk2-/- mice): did not induce any change
motility (squares crossed plus climbings) (mice [2]; shocked group, acute spadin): 78±7 counts
inhibitory effect on arachidonic acid-induced current (TREK-1 [3]): totally absent
reduced escape latencies after training versus saline (mice [4]): 25.4%
number of pCREB-labelled neurons versus saline (CREB): two-fold increase
inhibition at 1 µM (TREK-1 [5]): 36%
time for cell-associated radioactivity to reach a plateau (TREK-1 [6]): ≤ 30 min
